Data reported in patent US9695155B2, “Herbicidal substituted pyrimidinyloxy benzene compounds” (E. I. DU PONT DE NEMOURS AND COMPANY, priority 2013, dated 2017).

Tests used:
barnyardgrass [1] = experiment: Test A preemergence; assay type: in vivo, Echinochloa crus-galli
Summary of the method: (§1)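 Scoring: eye-based comparison with untreated controls, 0 for no effect through 100 for complete control, at about day 10. Treatments: directed soil spray preemergence; foliar spray postemergence on 2–10 cm plants at the one- to two-leaf stage. Medium: loam soil with sand.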

large (Lg) crabgrass [2] = experiment: Test A preemergence; assay type: in vivo, Digitaria sanguinalis
Summary of the method: as §1

giant foxtail [3] = experiment: Test A preemergence; assay type: in vivo, Setaria faberii
Summary of the method: as §1

morningglory [4] = experiment: Test A preemergence; assay type: in vivo, Ipomoea spp.
Summary of the method: as §1

pigweed [5] = experiment: Test A preemergence; assay type: in vivo, Amaranthus retroflexus
Summary of the method: as §1

velvetleaf [6] = experiment: Test A preemergence; assay type: in vivo, Abutilon theophrasti
Summary of the method: as §1

wheat [7] = experiment: Test A preemergence; assay type: in vivo, Triticum aestivum
Summary of the method: as §1

corn [8] = experiment: Test A preemergence; assay type: in vivo, Zea mays
Summary of the method: as §1

barnyardgrass [9] = experiment: Test A postemergence; assay type: in vivo, Echinochloa crus-galli
Summary of the method: as §1

large (Lg) crabgrass [10] = experiment: Test A postemergence; assay type: in vivo, Digitaria sanguinalis
Summary of the method: as §1

giant foxtail [11] = experiment: Test A postemergence; assay type: in vivo, Setaria faberii
Summary of the method: as §1

morningglory [12] = experiment: Test A postemergence; assay type: in vivo, Ipomoea spp.
Summary of the method: as §1

pigweed [13] = experiment: Test A postemergence; assay type: in vivo, Amaranthus retroflexus
Summary of the method: as §1

velvetleaf [14] = experiment: Test A postemergence; assay type: in vivo, Abutilon theophrasti
Summary of the method: as §1

wheat [15] = experiment: Test A postemergence; assay type: in vivo, Triticum aestivum
Summary of the method: as §1

corn [16] = experiment: Test A postemergence; assay type: in vivo, Zea mays
Summary of the method: as §1

rice = experiment: Test B flooded paddy test; assay type: in vivo, Oryza sativa; conditions: Flood, 250 g ai/ha, 0 to 100 scale where 0 is no effect and 100 is complete control
Summary of the method: (§2)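 Greenhouse flooded-pot test: compounds dosed into 3 cm standing water over 2-leaf plants, flood held constant. Rated visually after 13–15 days on 0–100 (complete control = 100); a dash marks no test result.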

sedge, umbrella = experiment: Test B flooded paddy test; assay type: in vivo, Cyperus difformis; conditions: Flood, 250 g ai/ha, 0 to 100 scale where 0 is no effect and 100 is complete control
Summary of the method: as §2

Heteranthera limosa = experiment: Test B flooded paddy test; assay type: in vivo; conditions: Flood, 250 g ai/ha, 0 to 100 scale where 0 is no effect and 100 is complete control
Summary of the method: as §2

barnyardgrass [17] = experiment: Test B flooded paddy test; assay type: in vivo, Echinochloa crus-galli; conditions: Flood, 250 g ai/ha, 0 to 100 scale where 0 is no effect and 100 is complete control
Summary of the method: as §2

[18] = 125 g ai/ha, 0 to 100 scale where 0 is no effect and 100 is complete control
[19] = 500 g ai/ha, 0 to 100 scale, 0 no effect, 100 complete control, approx. 10 days
[20] = 500 g ai/ha, 0 to 100 scale, 0 no effect, 100 complete control

Clc1cnc(Oc2ccccc2-n2ncc(Br)n2)nc1 [Compound 54, 2-[2-(4-bromo-2H-1,2,3-triazol-2-yl)phenoxy]-5-chloropyrimidine]
50%: plant injury at 1000 g/ha (corn [16]; Zea mays, post-emergence, 240 h, 1000 g ai/ha, 0 to 100 scale, 0 no effect, 100 complete control, read-out: Plant response rating Corn)
80%: pest or weed control at 1000 g/ha (velvetleaf [14]; Abutilon theophrasti, post-emergence, 240 h, 1000 g ai/ha, 0 to 100 scale, 0 no effect, 100 complete control, read-out: Plant response rating Velvetleaf)
70%: pest or weed control at 1000 g/ha (morningglory [4]; Ipomoea, pre-emergence, 240 h, 1000 g ai/ha, 0 to 100 scale, 0 no effect, 100 complete control, approx. 10 days, read-out: Morningglory plant response rating) | pest or weed control at 1000 g/ha (giant foxtail [11]; Setaria faberi, post-emergence, 240 h, 1000 g ai/ha, 0 to 100 scale, 0 no effect, 100 complete control, read-out: Plant response rating Foxtail, Giant)
100%: pest or weed control at 1000 g/ha (large (Lg) crabgrass [2]; Digitaria sanguinalis, pre-emergence, 240 h, 1000 g ai/ha, 0 to 100 scale, 0 no effect, 100 complete control, read-out: Plant response rating, Crabgrass, Large) | pest or weed control at 1000 g/ha (giant foxtail [3]; Setaria faberi, pre-emergence, 240 h, 1000 g ai/ha, 0 to 100 scale, 0 no effect, 100 complete control, approx. 10 days, read-out: Foxtail, Giant plant response rating) | pest or weed control at 1000 g/ha (pigweed [5]; Amaranthus retroflexus, pre-emergence, 240 h, 1000 g ai/ha, 0 to 100 scale, 0 no effect, 100 complete control, approx. 10 days, read-out: Pigweed plant response rating) | pest or weed control at 1000 g/ha (velvetleaf [6]; Abutilon theophrasti, pre-emergence, 240 h, 1000 g ai/ha, 0 to 100 scale, 0 no effect, 100 complete control, approx. 10 days, read-out: Velvetleaf plant response rating) | pest or weed control at 1000 g/ha (large (Lg) crabgrass [10]; Digitaria sanguinalis, post-emergence, 240 h, 1000 g ai/ha, 0 to 100 scale, 0 no effect, 100 complete control, read-out: Plant response rating Crabgrass, Large) | pest or weed control at 1000 g/ha (morningglory [12]; Ipomoea, post-emergence, 240 h, 1000 g ai/ha, 0 to 100 scale, 0 no effect, 100 complete control, read-out: Plant response rating Morningglory) | pest or weed control at 1000 g/ha (pigweed [13]; Amaranthus retroflexus, post-emergence, 240 h, 1000 g ai/ha, 0 to 100 scale, 0 no effect, 100 complete control, read-out: Plant response rating Pigweed)
20%: Corn plant response rating (crop injury, 0 = no effect, 100 = complete kill) at 1000 g/ha (corn [8]; Zea mays, pre-emergence, 240 h, 1000 g ai/ha, 0 to 100 scale, 0 no effect, 100 complete control)
30%: pest or weed control at 1000 g/ha (barnyardgrass [9]; Echinochloa crus-galli, post-emergence, 240 h, 1000 g ai/ha, 0 to 100 scale, 0 no effect, 100 complete control, read-out: Plant response rating Barnyardgrass)
0%: pest or weed control at 1000 g/ha (barnyardgrass [1]; Echinochloa crus-galli, pre-emergence, 240 h, 1000 g ai/ha, 0 to 100 scale, 0 no effect, 100 complete control, read-out: Plant response rating, Barnyardgrass) | plant injury at 1000 g/ha (wheat [7]; Triticum aestivum, pre-emergence, 240 h, 1000 g ai/ha, 0 to 100 scale, 0 no effect, 100 complete control, approx. 10 days, read-out: Wheat plant response rating) | plant injury at 1000 g/ha (wheat [15]; Triticum aestivum, post-emergence, 240 h, 1000 g ai/ha, 0 to 100 scale, 0 no effect, 100 complete control, read-out: Plant response rating Wheat) | plant injury at 250 g/ha (rice; Oryza sativa, read-out: Plant response rating, Rice) | pest or weed control at 250 g/ha (sedge, umbrella; Cyperus difformis, read-out: Plant response rating, Sedge, Umbrella) | pest or weed control at 250 g/ha (Heteranthera limosa; Heteranthera limosa, read-out: Plant response rating, Ducksalad) | pest or weed control at 250 g/ha (barnyardgrass [17]; Echinochloa crus-galli, read-out: Plant response rating, Barnyardgrass)

Clc1cnc(Oc2ccccc2-n2ccc(Br)n2)nc1 [Compound 21]
90: Plant response rating, Crabgrass, Large (large (Lg) crabgrass [2]; [18]) | Plant response rating, Pigweed (pigweed [5]; [18]) | Plant response rating, Foxtail, Giant (giant foxtail [11]; [20]) | Plant response rating, Pigweed (pigweed [13]; [18])
40: Plant response rating, Barnyardgrass (barnyardgrass [9]; [20]) | Plant response rating, Morningglory (morningglory [12]; [18]) | Plant response rating, Ducksalad (Heteranthera limosa)
70: Plant response rating, Foxtail, Giant (giant foxtail [3]; [18]) | Plant response rating, Sedge, Umbrella (sedge, umbrella)
15: Plant response rating, Rice (rice)
30: Barnyardgrass plant response rating (barnyardgrass [1]; [19]) | Plant response rating, Foxtail, Giant (giant foxtail [11]; [18]) | Plant response rating, Corn (corn [16]; [20])
25: Plant response rating, Barnyardgrass (barnyardgrass [17])
0: Plant response rating, Morningglory (morningglory [4]; [18]) | Morningglory plant response rating (morningglory [4]; [19]) | Plant response rating, Velvetleaf (velvetleaf [6]; [18]) | Plant response rating, Wheat (wheat [7]; [18]) | Wheat plant response rating (wheat [7]; [19]) | Plant response rating, Corn (corn [8]; [18]) | Corn plant response rating (corn [8]; [19]) | Plant response rating, Barnyardgrass (barnyardgrass [9]; [18]) | Plant response rating, Wheat (wheat [15]; [18]) | Plant response rating, Corn (corn [16]; [18])
20: Plant response rating, Barnyardgrass (barnyardgrass [1]; [18]) | Velvetleaf plant response rating (velvetleaf [6]; [19]) | Plant response rating, Crabgrass, Large (large (Lg) crabgrass [10]; [18]) | Plant response rating, Wheat (wheat [15]; [20])
100: Crabgrass, Large plant response rating (large (Lg) crabgrass [2]; [19]) | Foxtail, Giant plant response rating (giant foxtail [3]; [19]) | Pigweed plant response rating (pigweed [5]; [19]) | Plant response rating, Pigweed (pigweed [13]; [20])
80: Plant response rating, Morningglory (morningglory [12]; [20]) | Plant response rating, Velvetleaf (velvetleaf [14]; [20])
50: Plant response rating, Crabgrass, Large (large (Lg) crabgrass [10]; [20]) | Plant response rating, Velvetleaf (velvetleaf [14]; [18])

FC(F)(F)c1cnc(Oc2ccccc2-n2ccc(C(F)(F)F)n2)nc1 [Compound 4]
0: Barnyardgrass plant response rating (barnyardgrass [1]; [18]) | Barnyardgrass plant response rating (barnyardgrass [1]; [19]) | Crabgrass, Large plant response rating (large (Lg) crabgrass [2]; [18]) | Crabgrass, Large plant response rating (large (Lg) crabgrass [2]; [19]) | Foxtail, Giant plant response rating (giant foxtail [3]; [18]) | Foxtail, Giant plant response rating (giant foxtail [3]; [19]) | Morningglory plant response rating (morningglory [4]; [18]) | Morningglory plant response rating (morningglory [4]; [19]) | Pigweed plant response rating (pigweed [5]; [18]) | Pigweed plant response rating (pigweed [5]; [19]) | Velvetleaf plant response rating (velvetleaf [6]; [18]) | Velvetleaf plant response rating (velvetleaf [6]; [19]) | Wheat plant response rating (wheat [7]; [18]) | Wheat plant response rating (wheat [7]; [19]) | Corn plant response rating (corn [8]; [18]) | Corn plant response rating (corn [8]; [19]) | Plant response rating, Barnyardgrass (barnyardgrass [9]; [18]) | Plant response rating, Barnyardgrass (barnyardgrass [9]; [20]) | Plant response rating, Crabgrass, Large (large (Lg) crabgrass [10]; [18]) | Plant response rating, Crabgrass, Large (large (Lg) crabgrass [10]; [20]) | Plant response rating, Foxtail, Giant (giant foxtail [11]; [18]) | Plant response rating, Foxtail, Giant (giant foxtail [11]; [20]) | Plant response rating, Morningglory (morningglory [12]; [18]) | Plant response rating, Morningglory (morningglory [12]; [20]) | Plant response rating, Pigweed (pigweed [13]; [18]) | Plant response rating, Velvetleaf (velvetleaf [14]; [18]) | Plant response rating, Velvetleaf (velvetleaf [14]; [20]) | Plant response rating, Wheat (wheat [15]; [18]) | Plant response rating, Wheat (wheat [15]; [20]) | Plant response rating, Corn (corn [16]; [18]) | Plant response rating, Corn (corn [16]; [20]) | Plant response rating, Rice (rice) | Plant response rating, Sedge, Umbrella (sedge, umbrella) | Plant response rating, Ducksalad (Heteranthera limosa) | Plant response rating, Barnyardgrass (barnyardgrass [17])
20: Plant response rating, Pigweed (pigweed [13]; [20])
